A short description of data set [1]: Kinetic parameter for rate of conversion to PABA was determined. Type of data set: ADME.
Data set [2] has as its system Escherichia coli. As to the kind of experiment: Concentration required to sustain growth of Escherichia coli HDU-78; 1-10 nM. Type of data set: functional, organism-based.

The structures appear in SMILES notation.

In the case of `CC(=O)CC(C)(O)CCOC(=O)Nc1ccc(C(=O)O)cc1` (stereo not drawn), in data set [1], the Michaelis constant (Km) is 150 µM and the k cat came to 0.000115 s⁻¹.

In data set [2], `Nc1ccc(C(=O)O)cc1` yielded a Concentration of 10 nM.

Broadly, the Km is the concentration of substrate that gives half-maximal velocity.

For the origin of these results see ChEMBL document CHEMBL1135160, “Development of a genetic selection for catalytic antibodies” (Bioorg Med Chem Lett, 2002).
